Experimental data: article PMC8009478, “Novel Curcumin-Diethyl Fumarate Hybrid as a Dualistic GSK-3β Inhibitor/Nrf2 Inducer for the Treatment of Parkinson’s Disease” (ACS Chemical Neuroscience, 2020)
Values joined by “and” are separate entries in the source; they are usually repeats but may differ in a detail not shown here. Identical values can stand only once.

Experiments:
SH-SY5Y cells [1] = experiment: Intracellular GSH levels (MCB probe); assay type: cell-based, human; conditions: 5 μM; for increase in GSH levels as compared to control: 24 h; for GSH quantity at different times: after 12 and 24 h of treatment (3–24 h studied)
Method: By observing the reduction of ROS levels following a long treatment of the curcumin-DEF hybrids before the treatment with t-BuOOH, we hypothesized that the antioxidant effect might likely result from an increase in levels of GSH. This endogenous antioxidant plays critical roles in protecting cells against oxidative stress damage.[32] Thus, the intracellular GSH levels were analyzed by employing the same experimental conditions used to evaluate the indirect antioxidant effect by fluorescent probe monochlorobimane (MCB). […] For the most promising compounds 4 and 5, the effect on GSH levels at different times (3–24 h) was studied.
Figure 4 Effects of compounds 4–7 and DMF on GSH levels in SH-SY5Y cells. Cells were treated with (A) compounds 4–7 (5 μM) and DMF (5 and 10 μM) for 24 h. (B) Cells were treated with compounds 4 and 5 (5 μM) for different times (3, 6, 12, and 24 h). At the end of the treatment, the GSH levels were evaluated by probe MCB. Results are expressed as mean ± SEM of at least three independent experiments (** p < 0.01 and *** p < 0.001 vs untreated cells at one-way ANOVA with the Dunnett post hoc test).
GSH levels were evaluated by using the fluorescent probe MCB, as previously described.[44]

NQO1 = NQO1 gene expression by RT-PCR; assay type: cell-based, human; conditions: 5 μM, after 12 and 24 h of treatment
Method: Figure 5 Effects of compounds 4 and 5 on the Nrf2/ARE signaling pathway (A and B) and NQO1 gene expression (C) in SH-SY5Y cells. (A) Cells were treated with compounds 4 and 5 (5 μM) for different times (1, 3, and 6 h). Translocation of Nrf2 from the cytosol to the nucleus was evaluated by Western blotting. Data are expressed as a ratio between nuclear Nrf2 and cytoplasmic Nrf2 levels and reported as mean ± SEM of at least three independent experiments. (B) Cells were treated with compounds 4 and 5 (5 μM) and DMF (5 μM) for 6 h. The Nrf2/ARE binding activity was determined by an ELISA assay. Results are expressed as fold increase versus untreated cells and reported as mean ± SEM of at least three independent experiments (** p < 0.01 and * p < 0.05 versus untreated cells at the t-test). (C) Cells were treated with compounds 4 and 5 (5 μM) for different times (6, 12, and 24 h). The NQO1 expression was determined by RT-PCR. Results are expressed as the relative normalized expression and reported as mean ± SEM of at least three independent experiments (*** p < 0.001 versus untreated cells at one-way ANOVA with the Dunnett post hoc test).
To further confirm the increase in Nrf2 transcriptional activity upon treatment with 4 and 5, the mRNA levels of NQO1, a Nrf2 target gene, were evaluated in SH-SY5Y cells (Figure 5C). […]

SH-SY5Y cells [2] = experiment: Neuroprotection against 6-OHDA, MTT assay; assay type: cell-based, human; conditions: 5 μM for 24 h, then 6-OHDA 100 μM for 2 h
Method: Figure 6 Effects of 4 and 5 on neurotoxicity induced by OAβ1–42 oligomers and 6-OHDA in SH-SY5Y cells. (A) Cells were incubated with 4 and 5 (5 μM, for 24 h) and then treated with OAβ1–42 (10 μM, for 4 h). (B) Cells were incubated with compounds 4 and 5 (5 μM, for 24 h), then treated with 6-OHDA (100 μM, for 2 h), and then starved in complete medium for 22 h. The neurotoxicity was evaluated by an MTT assay. Data are expressed as percentages of neurotoxicity versus cells treated with Aβ1–42 oligomers or 6-OHDA and reported as mean ± SEM of at least three independent experiments (* p < 0.05 versus cells treated with 6-OHDA at one-way ANOVA with the Dunnett post hoc test).
The neurotoxin 6-OHDA provides an in vitro lesion model by inducing CNS oxidative damage and neuroinflammation suitable for assessing the neuroprotective potential of PD therapeutics.[34] Consistent with these effects, 6-OHDA (100 μM, for 2 h) was employed to induce damage in SH-SY5Y cells previously treated with 4 and 5 (5 μM, for 24 h).
Then, cells were treated with 6-hydroxydopamine (6-OHDA, 100 μM) for 2 h and starved in complete medium for 22 h. The neuroprotective activity was measured by using the MTT assay as previously described.[47] Data are expressed as a percentage of neurotoxicity versus untreated cells.

[3] = tested on: TagGFP2-α-syn SH-SY5Y cells; experiment: α-syn aggregates induced by 6-OHDA, fluorescence microscopy; assay type: cell-based, human; conditions: 5 μM for 24 h, then 6-OHDA 100 μM for 2 h
Method: Assessment of the α-syn aggregate formation was performed to corroborate the above results. TagGFP2-α-syn SH-SY5Y cells were treated for 24 h with 5 μM of 4 and 5 and then with 100 μM of 6-OHDA. After a 2 h incubation, the presence of α-syn aggregates was visualized by fluorescence microscopy analysis and quantified (Figure 7).
Figure 7 Effects of compounds 4 and 5 on α-syn aggregates induced by 6-OHDA in TagGFP2-α-syn SH-SY5Y cells. Cells were treated with compounds 4 and 5 (5 μM, for 24 h) and then with 6-OHDA (100 μM, for 2 h). At the end of incubation, the α-syn aggregates level was detected by fluorescence microscope. (A) Representative images of α-syn aggregates. (B) Quantification of the α-syn aggregates level. Data are expressed as mean fluorescence intensity ± SEM of at least three independent experiments (§§ p < 0.01 vs untreated cells, * p < 0.05 vs cells treated with 6-OHDA at one-way ANOVA with the Bonferroni post hoc test). Scale bars: 50 μm.
At the end of incubation, the aggregation of α-synuclein was detected using an inverted fluorescent microscope (Eclipse Ti-E, Nikon Instruments Spa, Florence, Italy). The intensity of fluorescence was directly proportional to the aggregation of α-synuclein. Data are expressed as arbitrary units of fluorescence.

PAMPA-BBB assay = conditions: for prediction (penetration in the CNS): from PAMPA-BBB Pe; for Papp at 2.5 h: pig, PAMPA, pH 7.4
GSK-3β = GSK-3β (Homo sapiens, UniProt P49841); experiment: GSK-3β inhibition, luminescent kinase assay (Kinase-Glo); conditions: for IC50: GSK-3β inhibition IC50 (μM) ± SEM, human recombinant enzyme, luminescence method
Sequence of GSK-3β (P49841 whole entry): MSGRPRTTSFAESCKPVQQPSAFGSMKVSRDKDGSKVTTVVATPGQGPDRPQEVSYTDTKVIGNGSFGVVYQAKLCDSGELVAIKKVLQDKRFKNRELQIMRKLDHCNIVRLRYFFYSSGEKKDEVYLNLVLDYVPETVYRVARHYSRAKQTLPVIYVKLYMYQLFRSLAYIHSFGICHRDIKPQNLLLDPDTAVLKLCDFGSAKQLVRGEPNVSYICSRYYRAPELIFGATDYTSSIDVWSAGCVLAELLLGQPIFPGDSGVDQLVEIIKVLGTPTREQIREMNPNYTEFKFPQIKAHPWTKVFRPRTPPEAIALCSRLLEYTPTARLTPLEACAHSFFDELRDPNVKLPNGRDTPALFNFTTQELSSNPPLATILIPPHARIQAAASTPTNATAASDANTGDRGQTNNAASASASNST
Method: A kinetic study was performed in which the concentrations of both ATP and tested compounds were varied, while the concentration of the substrate was kept constant.
GSK-3β inhibition . Kinase-Glo assays (Promega Biotech Iberica, SL) were performed in assay buffer using
black 96-well plates. In a typical assay, 10 µl (10 µM) of test compound (dissolved in DMSO at 1 mM concentration and diluted in advance in assa y buffer to the desired concentration) and 10 µL (20 ng) of
enzyme were added to each well followed by 20 µl of assay buffer containing 50 µM substrate and 2 µM ATP.
After 30 -min incu bation at 30 °C
the enzymatic reaction was stopped with 40 µL of Kinase -Glo reagent. Glow -type luminescence was recorded
after 10 min using a FLUOstar Optima (BMG Labtechnologies GmbH, Offenburg Germany) multimode reader.
The activity is proportional to th e difference in the total and consumed ATP. The inhibitory activities were
calculated on the basis of maximal activities measured in the absence of inhibitor. The IC 50 was defined as the concentration of each compound that reduces a 50 % the enzymatic activity with respect to that without
inhibitors. Five different concentrations by duplicate were used to determine the dose/response curve.

Papp at 2.5 h (PAMPA-BBB assay) | IC50 (GSK-3β) | inhibition at 10 µM (GSK-3β; read-out: GSK-3β inhibition, inhibition (%)) | SMILES | increase in GSH levels as compared to control (SH-SY5Y cells [1]) | GSH quantity at different times (SH-SY5Y cells [1]) | NQO1 mRNA levels (NQO1) | protection against 6-OHDA-induced decrease in cell viability (SH-SY5Y cells [2]) | levels of α-syn aggregates elicited by 6-OHDA [3] | prediction (penetration in the CNS) (PAMPA-BBB assay)
4.8 ± 0.4 ×10⁻⁶ cm/s | 8.4 µM and 8.39 µM |  | CCOC(=O)/C=C/C(C(=O)/C=C/c1ccc(OC)cc1)=C(O)\C=C\c1ccc(OCc2ccccc2)cc1 [Compound 5, Ethyl (2E,4Z,6E)-7-(4-(Benzyloxy)phenyl)-5-hydroxy-4-((E)-3-(4-methoxyphenyl)acryloyl)hepta-2,4,6-trienoate] | 4 fold | significant increase | significant ability to increase NQO1 mRNA levels | mitigate the 6-OHDA-induced decrease in cell viability | significantly decrease the levels of toxic α-syn aggregates | CNS + (compounds showing a Pe value superior to 2.26 × 10^–6 cm s^–1 could be regarded as able to permeate the brain compartment and thus classified as (CNS +))
2.5 ± 0.3 ×10⁻⁶ cm/s | > 10 µM | 40% | CCOC(=O)/C=C/C(C(=O)/C=C/c1ccc(OC)cc1)=C(O)\C=C\c1ccc(OC)cc1 [Compound 4, Ethyl (2E,4Z,6E)-5-Hydroxy-7-(4-methoxyphenyl)-4-((E)-3-(4-methoxyphenyl)acryloyl)hepta-2,4,6-trienoate] | 4 fold | significant increase | significant ability to increase NQO1 mRNA levels | mitigate the 6-OHDA-induced decrease in cell viability | significantly decrease the levels of toxic α-syn aggregates | CNS + (compounds showing a Pe value superior to 2.26 × 10^–6 cm s^–1 could be regarded as able to permeate the brain compartment and thus classified as (CNS +))
